Measurements published in US20140249143A1, “Compounds And Methods For Enhancing Innate Immune Responses” (GlaxoSmithKline LLC, priority 2011, published 2014).

Assays:
[1] = tested on: reconstructed human epidermis (RHE) keratinocytes; assay: JAK/STAT induction in reconstructed human epidermis (western blot, real-time PCR); assay type: cell-based; settings: 10 μM (IFN-alpha 100 U/mL), 6 and 72 hrs
Description: First, reconstructed human epidermis (“RHE”) consisting of cultured human keratinocyte cells were incubated in triplicate with media containing either the media alone, media+0.1% DMSO, media containing 10 μM of several putative JAK/STAT activator compounds described herein in Tables 1 and 2 (Example 1, Example 2, Example 11, and compound no. 89 (as a negative control)), or media containing 100 U/mL of a positive control Interferon-alpha (IFN-alpha) recombinant protein at 37° C. in a humidified atmosphere containing 5% CO2, for 6 and 72 hours.
At the end of the incubation period, the RHE tissues were cut into two sections. One section was ¼ of the total size and the second section was […].

[2] = tested on: JAK/STAT; assay: JAK/STAT activator assay; assay type: cell-based
[3] = tested on: STAT1 phosphorylation; assay: STAT1 phosphorylation immunoblot in HCV replicon cells; assay type: cell-based; settings: IFNα 100 U/ml
Description: (§1) IFNα (100 U/ml) and DMSO were included as controls. The total cell lysates were analyzed on a 4-20% SDS-PAGE gradient gel and followed by immunoblotting using anti-phopho STAT1 antibody (Cell Signaling). The level of actin was monitored as a loading control. The bands were visualized by the alkaline phosphatase activity conjugated with the secondary antibody (Promega) using ProtoBlot II AP System™ (Promega).

[4] = tested on: interferon stimulated genes (ISGs); assay: Expression of interferon stimulated genes in HCV replicon cells (real time RT-PCR); assay type: cell-based; settings: Example 1 2 μM, IFNα 100 U/ml
From the text: The up-regulation of interferon stimulated genes upon treatment with Example 1 was monitored by quantitative real time RT-PCR using specific primers for each gene, as shown in FIG. 3. […] Total RNA was isolated using RNeasy 96 kit (Qiagen) and converted to cDNA using High Capacity cDNA reverse transcription kit (Applied Biosystems). For real time PCR, the cDNA was used for PCR reactions using TaqMan Fast Universal PCR master mix (Applied Biosystems) and specific primers (Applied Biosystems). As housekeeping genes, actin and GAPDH were used for normalization. Data was calculated by the ΔΔCt method and fold change determined compared to DMSO-treated control samples.

[5] = tested on: respiratory syncytial virus (RSV); assay: RSV plaque assay on HEp-2 cells; assay type: cell-based; settings: 1000 U/ml
Description: A broad spectrum of antiviral activity of Example 1 was accessed by testing it for potency against other viruses. (See FIG. 8). […] RSV (long form) was inoculated on the layer of HEp-2 cells at multiplicity of infection of <0.001. After 4 hour post infection, the inoculum was replaced with 0.3% agarose containing MEM and various concentration of Example 1 or IFNα. The cells were incubated for up to 5-6 days until the plaques were visible. The cells were then fixed with 3% formaldehyde and stained with neutral red for visualization.

[6] = target: T1, human JAK1 (Homo sapiens, UniProt P23458); assay: JAK1 reconstitution in U4A and 2fGH cells (phosphor-STAT1 western blot, Taqman mRNA); assay type: cell-based; settings: Example 1 10 μM, IFNα 100 U/ml
T1 construct: expressed in transfected cells; host or cells: U4A cells (JAK1-deficient derivative of the human fibroblast line 2fGH), transduced with a baculovirus mammalian expression system
Description: 2fGH and U4A cells were obtained from the Cleveland Clinic. 2fGH is a human fibroblast cell line and U4A cell line is a derivative 2fGH harboring a defect in JAK1 expression (Muller, et al., Nature 366, 129-135 (1993)). Green fluoroscent protein (GFP) or human JAK1 was transduced in U4A cells by baculovirus mammalian expression system. After 24 hours post transduction, the cells were treated with DMSO, Example 1 (10 μM), IFNα (100 U/ml), IFNβ (100 U/ml), or IFNγ (100 U/ml). Untransduced U4A cells and 2fGH cells were included as controls for 6 or 18 hours. The cells were harvested at indicated time points and used for detecting phosphor-STAT1 by western blot (FIG. 10, panel A) or for mRNA analysis by Taqman quantitation (FIG. 10, panel B).
as §1, with “The” for “IFNα (100 U/ml) and DMSO were included as controls. The”, “system” for “System™”
Gene expression was measured using TaqMan Fast Universal PCR Master Mix (Applied Biosystems) and gene specific probes and murine primers in HT7900 FAST System (Invitrogen). As housekeeping genes, actin and GAPDH were used for normalization. Data was calculated by the ΔΔCt method and fold change determined compared to non-treated control samples.

[7] = tested on: ISG56 (Interferon-Stimulated Gene 56) promoter ISRE; assay: ISG56 luciferase reporter assay in HEK 293 cells; assay type: cell-based; settings: Homo sapiens, HEK293; HEK 293 reporter, 24 hours; 100% = small molecule control test compound; read-out: ISG56 (Average Max Response) %
Description: Compounds of the present invention were tested against a HEK (Human Embryonic Kidney) 293 cell line that was stably transfected with a firefly luciferase reporter gene under the control of the ISG56 (Interferon-Stimulated Gene 56) promoter ISRE (Interferon-Stimulated Response Element). While the ISRE is in the opposite orientation of the wild type promoter, literature^1 cites that the response elements are pallindromic and function properly in either orientation. ^1Reich, N., Evans, B., Levy, D., Fahey, D., Knight, E., Damell, J. E. (1987) Interferon-induced transcription of a gene encoding a 15-kDa protein depends on an upstream enhancer element. See, Proc. Natl. Acad. Sci. 84, (6394-6398).
In preparation for the assay, test compounds were serially diluted 3-fold in DMSO from a typical top concentration of 5 mM and plated at 0.2 μL in a 384-well, polystyrene, tissue culture treated plate with lid (Greiner Bio-One North America, Inc., Monroe, N.C.) to generate 11-point dose response curves in the assay. Low control wells (0% response) contained 0.2 μL of DMSO alone, and high control wells (100% response) contained 0.2 μL of a small molecule control test compound.
Frozen stocks of the transfected HEK 293 cells were washed and recovered in DMEM I Ham's F-12 media (Invitrogen Corporation, Carlsbad, Calif.) supplemented with 10% v/v qualified Australian fetal bovine serum (FBS) (Invitrogen Corporation, Carlsbad, Calif.), 1× GlutaMAX™ (Invitrogen Corporation, Carlsbad, Calif.), 1×MEM non-essential amino acids (NEAA) (Invitrogen Corporation, Carlsbad, Calif.) and 500 μg/ml Geneticin® (Invitrogen Corporation, Carlsbad, Calif.). The cells were diluted to 500,000 cells/mL in the supplemented DMEM/Ham's F-12 media, and 20 μL of the cell suspension were added to each well of the previously prepared 384-well compound plate, resulting in 10,000 cells/well. The plate, with lid, were placed in a 37° C., 5% CO2 humidified incubator for 24 hours.
Following incubation, the plates were removed and placed on the bench top without lids to equilibrate to room temperature for 30 minutes. Steady-Glo® (Promega Corporation, Madison, Wis.) was prepared according to the manufacturer's instructions, and 10 μL were added to each plate well. After a twenty minute incubation at room temperature, luminescence was read on a ViewLux™ (PerkinElmer Inc., Waltham, Mass.).
The data for dose responses were plotted as % activation versus compound concentration following normalization using the formula 100*((U−C1)/(C2−C1)), where U was the unknown value, C1 was the average of the low (0% response) control wells and C2 was the average of the high (100% response) control wells. Curve fitting was performed with the equation y=A+((B−A)/(1+(10^x/10^C)^D)), where A was the minimum response, B was the maximum response, C was the log(EC50) and D was the Hill slope. The results for each test compound were recorded as pEC50 values (—C in the above equation) and as max response values at a given concentration.

[8] = tested on: HCV genotype 1b subgenomic replicon; assay: Anti-Hepatitis C replicon assay, genotype 1b (luciferase); assay type: cell-based; settings: Hepatitis C virus; luciferase activity measured 48 hours later; read-out: HCV Genotype 1B Replicon pEC50 (converted)
Description: (§2) Compounds were assayed for activity against HCV using the genotype 1a and 1b subgenomic replicon model systems. Stable cell lines bearing the genotype 1a and 1b replicons were used for screening of compounds. Both replicons are bicistonic and contain the firefly luciferase gene. The ET cell line is stably transfected with RNA transcripts harboring a I389luc-ubi-neo/NS3-3′/ET replicon with firefly luciferase-ubiquitin-neomycin phosphotransferase fusion protein and EMCV-IRES driven NS3-5B polyprotein containing the cell culture adaptive mutations (E1202G; T1280I; K1846T) (Krieger at al, 2001 and unpublished). The genotype 1a replicon is a stable cell line licensed from Apath LLC, modified to contain the firefly luciferase gene. The cells were grown in DMEM, supplemented with 10% fetal calf serum, 2 mM Glutamine, Penicillin (100 IU/mL)/Streptomycin (100 μg/mL), 1× nonessential amino acids, and 250-500 μg/mL G418 (“Geneticin”). They were all available through Life Technologies (Bethesda, Md.). The cells were plated at 0.5×10^4 cells/well in 384 well plates containing compounds. The final concentration of compounds ranged between 0.03 pM to 50 μm and the final DMSO concentration of 0.5-1%.
(§3) Luciferase activity was measured 48 hours later by adding a Steady glo (Promega, Madison, Wis.). Percent inhibition of replication data was plotted relative to no compound control. Under the same condition, cytotoxicity of the compounds was determined using cell titer glo (Promega, Madison, Wis.). IC50s were determined from a 10 point dose response curve using 3-4-fold serial dilution for each compound, which spans a concentration range>1000 fold. BioAssay determines the level of inhibition for each compound by normalizing cross-talk corrected plate values against the negative (low or background, cells with no compound present) and positive (high DMSO, no cells) controls to determine Percent Inhibition:
(§4) These normalized values are exported to IC50 where they are plotted against the molar compound concentrations using the standard four parameter logistic equation: […]

[9] = tested on: ISGs and cytokines mRNA; assay: Dose response of ISG induction in vivo; design: species or system CD-1 mice; settings: 0, 200, 600, 1000 mg/kg oral gavage, 24 h, blood and tissues
Description: Naive male CD-1 mice were obtained from Charles Rivers Laboratories (Wilmington, Mass.) and administered with Example 11 in a dose response (0, 200, 600, and 1000 mg/kg; three mice per dose group) by oral gavage. The dose of 200 mg/kg was in 0.5% HPMC/0.1% Tween 80 whereas the rest of doses were in 30% solutol/70% PEG400. At 24 h, the blood and tissues were collected and processed as described above. The gene expressions of various ISGs and cytokines were monitored by real time RT-PCR (see above for the details).

[10] = tested on: HCV genotype 1a subgenomic replicon; assay: Anti-Hepatitis C replicon assay, genotype 1a (luciferase); assay type: cell-based; settings: Hepatitis C virus; luciferase activity measured 48 hours later; read-out: HCV Genotype 1A Replicon pEC50 (converted)
Description: as §2, §3, §4

T1 sequence (P23458 whole entry): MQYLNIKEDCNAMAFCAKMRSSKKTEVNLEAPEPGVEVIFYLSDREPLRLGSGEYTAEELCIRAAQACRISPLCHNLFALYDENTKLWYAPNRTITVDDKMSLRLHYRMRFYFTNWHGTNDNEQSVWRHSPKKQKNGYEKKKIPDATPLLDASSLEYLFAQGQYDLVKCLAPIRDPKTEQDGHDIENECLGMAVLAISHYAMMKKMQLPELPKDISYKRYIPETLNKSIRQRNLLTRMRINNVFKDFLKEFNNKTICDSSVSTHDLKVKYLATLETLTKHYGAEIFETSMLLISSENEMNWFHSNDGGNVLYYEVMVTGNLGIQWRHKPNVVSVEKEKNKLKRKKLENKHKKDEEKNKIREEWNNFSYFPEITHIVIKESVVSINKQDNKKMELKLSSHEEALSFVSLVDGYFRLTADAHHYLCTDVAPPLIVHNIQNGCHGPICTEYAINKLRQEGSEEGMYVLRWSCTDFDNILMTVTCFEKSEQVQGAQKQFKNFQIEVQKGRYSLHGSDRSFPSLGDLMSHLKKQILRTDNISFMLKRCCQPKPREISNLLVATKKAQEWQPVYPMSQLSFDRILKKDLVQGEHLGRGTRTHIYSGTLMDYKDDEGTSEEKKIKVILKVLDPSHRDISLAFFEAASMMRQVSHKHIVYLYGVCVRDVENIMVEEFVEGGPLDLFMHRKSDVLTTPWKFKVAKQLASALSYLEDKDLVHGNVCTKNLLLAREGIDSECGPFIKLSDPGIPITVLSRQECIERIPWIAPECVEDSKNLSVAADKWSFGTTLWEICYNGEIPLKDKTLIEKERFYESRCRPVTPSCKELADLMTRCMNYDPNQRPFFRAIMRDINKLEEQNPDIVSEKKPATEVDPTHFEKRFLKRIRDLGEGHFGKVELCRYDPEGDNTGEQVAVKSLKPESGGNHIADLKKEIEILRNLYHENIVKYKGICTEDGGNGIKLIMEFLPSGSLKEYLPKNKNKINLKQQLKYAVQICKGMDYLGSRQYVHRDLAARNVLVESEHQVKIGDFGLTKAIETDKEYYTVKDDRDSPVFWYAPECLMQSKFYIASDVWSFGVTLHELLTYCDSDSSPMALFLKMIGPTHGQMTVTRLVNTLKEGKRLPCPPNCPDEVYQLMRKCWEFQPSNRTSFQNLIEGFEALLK

Compound	Stat1 phosphorylation (western blot) [1]	result in the JAK/STAT activator assay [2]	STAT1 phosphorylation ([3]; Example 1 2 uM, 1 h, 6 h, 24 h)	time at which phosphorylated STAT1 peaked [3] [h]	time of maximum induction of ISGs [4] [h]	RSV plaques [5]	activation of STAT1 in U4A cells transduced with JAK1 [6]	p-STAT1 in U4A cells (JAK1 deficient) transduced with GFP [6]	Emax [7] [%]	EC50 [8] [nM]	induction of ISG in dose response [9]	EC50 [10] [nM]
FC(F)(F)c1cc(C(F)(F)F)c2ccc3nc(-c4nncs4)cn3c2n1 [Compound 89]	did not show phosphorylation of Stat1	negative										
IFNα	Stat1 phosphorylation		induced STAT1 phosphorylation	1	4	significantly reduced the number and size of the plaques	activation of STAT1 was observed	not present				
FC(F)(F)c1nc(C(F)(F)F)c2ccc3nc(-c4nnco4)cn3c2n1 [Compound 11, 4-(1,3,4-oxadiazol-2-yl)-10,12-bis(trifluoromethyl)-2,5,11,13-tetraazatricyclo[7.4.0.0^2,^6]trideca-1(9),3,5,7,10,12-hexaene]	Stat1 phosphorylation								293	794	correlated with given doses in all tissues	251
